The results in this text go back to patent publication US12116594B2, “Methods for differentiating cells” (BOND UNIVERSITY LTD, priority 2015, dated 2024).

Molecules are shown by their SMILES. Entries after “also recorded” stand apart in the source; their conditions may differ.

The assay has as its system Mell hESC. The assay is described as follows: Differentiation assay for small molecule differentiation of hESC to hESC-RPEC; ANEB outgrowths scored for % putative RPE morphology at day 14. The assay is classed as cell-based, human. The text has this: FIG. 31 Establishment of differentiation conditions for hESC-RPEC differentiation using small molecules. (A): Differentiation assay for small molecule differentiation of Mell hESC to hESC-RPEC. […] (B): Optimal ANEB size determined between 1000-1500 cells/body. (C): Optimal window for both seeding ANEBs and switching to RDM is day 6. […] For each experiment, ANEB outgrowths were scored for % putative RPE morphology at day 14. Differentiation is represented as heat map scores (0=0%, 1=5-10%, 2=10-15%, 3=15-25%, 5=25-40%, 6=40-55%, 7=55-70%, 8=80+%).
HESC cultures were prepared for differentiation by supplementing mTeSR™1 with 10 uM Y-27632 (Rock inhibitor) (Sigma) for at least one hour prior to single cell dissociation with TrypLE™ Express (Gibco), counted and replated onto plates pre-coated with reduced growth factor Matrigel™ (RGFMG) (Corning) at high density (150,000 cells/cm2) in mTeSR™1 medium, supplemented with 10 uM Y-27632 and cultured overnight. The following day, cultures were refed fresh mTeSR™1 medium, without Rock inhibitor cultured for another 18-48 hours, or until cell cultures were nearly confluent (FIG. 2). Subsequently, cells were cultured in Primary Differentiation Medium (PDM) (containing 100 nM LDN193189, 10 uM SB431542, 5 uM CKI-7, and supplemented with 10 mM Nicotinamide) for 45 hours, before being further supplemented with 10 uM Rock inhibitor for an hour (FIG. 3 A). Differentiating cultures were single cell dissociated using TryPLE™ Express, re-suspended in PDM supplemented with 10 mM Nicotinamide and 10 uM Rock inhibitor, and formed into 3D cell aggregates of approximately 1500 cells/aggregate, using the AggreWellP400 (StemCell Technologies) (FIG. 3B), and cultured overnight. After 12-18 hours, the cell aggregates. The cell aggregates were cultured in suspension in Corning® Costar® Ultra-Low attachment 6-well plates (Corning) in primary differentiation medium (with 10 mM Nicotinamide), until day 4 or day 6, to differentiate as generate 3D aggregates of hESC-derived eyefield cells (ANEBs) to eyefield progenitor cells (FIG. 4A). At day 6, ANEBs were re-seeded onto RGFMG coated plates in RPEC Differentiation Medium (RDM) (containing 250 nM IDE-2 and 3 uM CHIR99021). ANEBs attached to the plate and the outgrowths were assessed for the appearance of immature RPE-like morphology (FIG. 8). ANEB outgrowths were cultured in RDM until day 14. Some putative hESC-RPEC cultures were maintained in an undisrupted form on the plates, while others were single cell dissociated and re-plated onto RGFMG at 150,000 cells/cm2 and cultured in Base Medium 2 (BM2), or RPEC Culture Medium (RCM), both supplemented with 10 uM Y-27632 until medium change the following day. hESC-RPEC cultures that are not dissociated may be maintained in BM2, without further supplementation, or in RMM, to generate mature hESC-RPECs within 21-28 days of the differentiation process (FIG. 9).
The hESC methods of the invention relating to the differentiation of human SCs towards the eyefield progenitor cells, that are Rax+ on day 4 and day 6 (FIG. 6), which has been confirmed by qRT-PCR expression of Rax, LHX2, Pax6(−5a) (FIG. 7). […] FIG. 31 A is a summary of experimental conditions designed to test the ability of each molecule to contribute to efficient RPEC differentiation within a 14-day period. Primary differentiation was from day 0-day 6, followed by secondary differentiation, or RPE differentiation, from day 6 to day 14. Briefly, hESC differentiation to RPE in the absence of LDN is low. […] The role of CKI-7 on differentiation efficiency was tested in combination with a variety of combinations to determine the optimal signalling requirements for differentiation. The small molecule IDE-2 was tested for its ability to functionally replace Activin A in a context for which it had not previously been tested. […] Although the effect of NIC on hESC-RPEC differentiation was positive during differentiation towards to the eyefield, but negative after. […]

Where [1] appears, read: molecule used in secondary (RPE) differentiation conditions, day 6 to day 14.
Setting [2] is: molecule used in primary differentiation conditions, day 0-day 6.

As to `O=C(O)CCCCCC(=O)NN=C1CCCC1` [IDE-2], the “hESC-RPEC differentiation by day 14” value (combined use of IDE-2 with the GSK3b inhibitor, secondary differentiation day 6 to day 14) was “highest degree of hESC-RPEC differentiation”. The “hESC-RPEC differentiation (% putative RPE morphology at day 14)” value under setting [1] is reported as “enhances RPEC differentiation”.
Turning to `c1ccc2c(-c3cnn4cc(-c5ccc(N6CCNCC6)cc5)cnc34)ccnc2c1` [LDN, LDN193189], under setting [2], the “hESC-RPEC differentiation (% putative RPE morphology at day 14)” value was “improved differentiation”.
Consider `NCCNS(=O)(=O)c1ccc(Cl)c2ccncc12` [CKI-7], for which, under setting [2], the “hESC-RPEC differentiation (% putative RPE morphology at day 14)” value was “greatly enhanced; also recorded: further enhanced”.
As for `NC(=O)c1cccnc1` [NIC, nicotinamide], the “hESC-RPEC differentiation (% putative RPE morphology at day 14)” value under setting [2] is on record as “positive” and the “hESC-RPEC differentiation (% putative RPE morphology at day 14)” value under setting [1] is reported as “suppresses RPEC differentiation; also recorded: negative”.
Regarding `Cc1c[nH]c(-c2cnc(NCCNc3ccc(C#N)cn3)nc2-c2ccc(Cl)cc2Cl)n1` [CHIR, CHIR99021], the “hESC-RPEC differentiation (% putative RPE morphology at day 14)” value under setting [1] is “essential for highly efficient RPEC differentiation”.
